Reference: PMC12526212, “Novel Isolongifolenone-Based Caprolactam Derivatives as Potential Anticancer Agents via the p53/mTOR/Autophagy Pathway” (Molecules, 2025)

How the values were obtained:
MCF-7 cells [1] = assay: Annexin V/PI apoptosis assay by flow cytometry; type: cell-based, human; settings: Figure 6A, in comparison with control
Procedure: The ability of drugs to induce cancer cell apoptosis is a key indicator of their chemotherapeutic potential. […] To examine the apoptotic effects of E10, an Annexin V-FITC dual-staining assay (with flow cytometric analysis) was performed. As shown in Figure 3A (also Figure 3C), treatment with increasing concentrations of E10 induced a marked elevation in apoptotic cell populations.
Autophagy has bidirectional regulation effects on cell survival. To confirm the role of autophagy in E10-induced cell death, 3-MA was used as an autophagy blocker.
MCF-7 cells were seeded at a density of 6 × 10^5 cells per well in 12-well plates and incubated in a 37 °C, 5% CO2 incubator for 24 h. After treatment with different concentrations of compound E10, the cells were washed with PBS two times, collected by trypsin enzymic digestion and centrifugation, and the collected cells were subsequently stained with 5 µL Annexin V-APC (YSRIBIO-C1084) and 5 µL PI for 10 min in the dark conditions. The cell apoptosis was measured with the flow cytometry (BD), and the data were analyzed by flowjo 10.6 software.

MCF-7 cells [2] = assay: Monodansylcadaverine (MDC) staining assay for autophagy; type: cell-based, human; settings: 24 h, compared with control; 3-MA as co-treatment with E10
Procedure: To investigate whether E10 induced autophagy in MCF-7 cells, we performed Monodansylcadaverine (MDC) staining, transmission electron microscopy (TEM), and Western blot analysis to evaluate autophagy-related markers. MDC is a fluorescent probe commonly used to detect the formation of autophagic vacuoles, as it specifically labels autophagosomes.
MDC is a staining indicator for the formation of autophagosome. MCF-7 cells were seeded at a density of 2 × 10^5 cells per well in 6-well plates. MCF-7 cells were inoculated into a 6-well plate, and the cells were treated with E10 for 24 h. The treated cells were washed twice with buffer and then stained with MDC (Beijing Solarbio Science & Technology Co., Ltd., Beijing, China) for 40 min. The cells were then detected under a fluorescence microscope (Carl Zeiss, Jena, Germany).

`Cn1cnc(N)c2ncnc1-2` [3-MA, 3-methyladenine, reference compound] was tested, and the “cell apoptosis with or without autophagy blocker 3-MA” value (MCF-7 cells [1]) was “reversed E10-induced apoptosis” and the “MDC staining, autophagosome formation” value (MCF-7 cells [2]) was “marked reduction in fluorescence intensity”.
